Assay results reported in ChEMBL document CHEMBL3045679, “Microwave-assisted synthesis and pharmacological studies of novel 5-deazaalloxazine derivatives” (2012).
In brackets after ≈: the same amount, converted by molar mass. Activity calls are given as the source filed them. The rule behind the calls is not given here.

How the values were obtained:
[1] = test system: Lipomyces lipofer; experiment: Antifungal activity against Lipomyces lipofer NCIM 3252 at 1000 ug/disk after 72 hr by disk diffusion method; format: functional; details: for zone of inhibition at 1000 µg/disc: NCIM 3252, 72 h, read-out: DIZ
[2] = test system: Lipomyces lipofer; experiment: Antifungal activity against Lipomyces lipofer NCIM 3252 at 500 ug/disk after 72 hr by disk diffusion method; format: functional; details: for zone of inhibition at 500 µg/disc: NCIM 3252, 72 h, read-out: DIZ
[3] = test system: Candida albicans; experiment: Antifungal activity against Candida albicans NCIM 3471 at 1000 ug/disk after 72 hr by disk diffusion method; format: functional; details: for zone of inhibition at 1000 µg/disc: NCIM 3471, 72 h, read-out: DIZ
[4] = test system: Candida albicans; experiment: Antifungal activity against Candida albicans NCIM 3471 at 500 ug/disk after 72 hr by disk diffusion method; format: functional
[5] = test system: Rhodotorula mucilaginosa; experiment: Antifungal activity against Rhodotorula mucilaginosa NCIM 3174 at 1000 ug/disk after 72 hr by disk diffusion method; format: functional; details: for zone of inhibition at 1000 µg/disc: NCIM 3174, 72 h, read-out: DIZ
[6] = test system: Rhodotorula mucilaginosa; experiment: Antifungal activity against Rhodotorula mucilaginosa NCIM 3174 at 500 ug/disk after 72 hr by disk diffusion method; format: functional
[7] = test system: Aspergillus flavus; experiment: Antifungal activity against Aspergillus flavus NCIM 535 at 1000 ug/disk after 72 hr by disk diffusion method; format: functional; details: for zone of inhibition at 1000 µg/disc: NCIM 535, 72 h, read-out: DIZ
[8] = test system: Aspergillus flavus; experiment: Antifungal activity against Aspergillus flavus NCIM 535 at 500 ug/disk after 72 hr by disk diffusion method; format: functional
[9] = test system: Aspergillus niger; experiment: Antifungal activity against Aspergillus niger NCIM 1196 at 1000 ug/disk after 72 hr by disk diffusion method; format: functional; details: for zone of inhibition at 1000 µg/disc: NCIM 1196, 72 h, read-out: DIZ
[10] = test system: Aspergillus niger; experiment: Antifungal activity against Aspergillus niger NCIM 1196 at 500 ug/disk after 72 hr by disk diffusion method; format: functional; details: for zone of inhibition at 500 µg/disc: NCIM 1196, 72 h, read-out: DIZ
[11] = test system: Penicillium chrysogenum; experiment: Antifungal activity against Penicillium chrysogenum NCIM 707 at 1000 ug/disk after 72 hr by disk diffusion method; format: functional; details: for zone of inhibition at 1000 µg/disc: NCIM 707, 72 h, read-out: DIZ
[12] = test system: Penicillium chrysogenum; experiment: Antifungal activity against Penicillium chrysogenum NCIM 707 at 500 ug/disk after 72 hr by disk diffusion method; format: functional
[13] = test system: Streptomyces albus; experiment: Antibacterial activity against Streptomyces albus NCIM 2178 at 1000 ug/disk after 24 hr by disk diffusion method; format: functional; details: for zone of inhibition at 1000 µg/disc: NCIM 2178, 24 h, read-out: DIZ
[14] = test system: Streptomyces albus; experiment: Antibacterial activity against Streptomyces albus NCIM 2178 at 500 ug/disk after 24 hr by disk diffusion method; format: functional, organism-based
[15] = test system: Bacillus cereus; experiment: Antibacterial activity against Bacillus cereus NCIM 2155 at 1000 ug/disk after 24 hr by disk diffusion method; format: functional; details: NCIM 2155, 24 h, read-out: DIZ
[16] = test system: Bacillus cereus; experiment: Antibacterial activity against Bacillus cereus NCIM 2155 at 500 ug/disk after 24 hr by disk diffusion method; format: functional; details: for zone of inhibition at 500 µg/disc: NCIM 2155, 24 h, read-out: DIZ
[17] = test system: Bacillus subtilis; experiment: Antibacterial activity against Bacillus subtilis NCIM 2063 at 1000 ug/disk after 24 hr by disk diffusion method; format: functional; details: NCIM 2063, 24 h, read-out: DIZ
[18] = test system: Bacillus subtilis; experiment: Antibacterial activity against Bacillus subtilis NCIM 2063 at 500 ug/disk after 24 hr by disk diffusion method; format: functional; details: for zone of inhibition at 500 µg/disc: NCIM 2063, 24 h, read-out: DIZ
[19] = test system: Klebsiella aerogenes; experiment: Antibacterial activity against Enterobacter aerogenes NCIM 2239 at 1000 ug/disk after 24 hr by disk diffusion method; format: functional; details: NCIM 2239, 24 h, read-out: DIZ
[20] = test system: Klebsiella aerogenes; experiment: Antibacterial activity against Enterobacter aerogenes NCIM 2239 at 500 ug/disk after 24 hr by disk diffusion method; format: functional
[21] = test system: Pseudomonas aeruginosa; experiment: Antibacterial activity against Pseudomonas aeruginosa NCIM 2200 at 1000 ug/disk after 24 hr by disk diffusion method; format: functional; details: NCIM 2200, 24 h, read-out: DIZ
[22] = test system: Pseudomonas aeruginosa; experiment: Antibacterial activity against Pseudomonas aeruginosa NCIM 2200 at 500 ug/disk after 24 hr by disk diffusion method; format: functional
[23] = test system: Escherichia coli; experiment: Antibacterial activity against Escherichia coli NCIM 2065 at 1000 ug/disk after 24 hr by disk diffusion method; format: functional; details: NCIM 2065, 24 h, read-out: DIZ
[24] = test system: Escherichia coli; experiment: Antibacterial activity against Escherichia coli NCIM 2065 at 500 ug/disk after 24 hr by disk diffusion method; format: functional; details: for zone of inhibition at 500 µg/disc: NCIM 2065, 24 h, read-out: DIZ
[25] = test system: Bacillus subtilis; experiment: Antibacterial activity against Bacillus subtilis NCIM 2063 after 24 hr by broth dilution assay; format: functional; details: NCIM 2063, 24 h
[26] = test system: Klebsiella aerogenes; experiment: Antibacterial activity against Enterobacter aerogenes NCIM 2239 after 24 hr by broth dilution assay; format: functional; details: NCIM 2239, 24 h
[27] = test system: Pseudomonas aeruginosa; experiment: Antibacterial activity against Pseudomonas aeruginosa NCIM 2200 after 24 hr by broth dilution assay; format: functional; details: NCIM 2200, 24 h
[28] = test system: Escherichia coli; experiment: Antibacterial activity against Escherichia coli NCIM 2065 after 24 hr by broth dilution assay; format: functional; details: NCIM 2065, 24 h
[29] = test system: Lipomyces lipofer; experiment: Antifungal activity against Lipomyces lipofer NCIM 3252 after 72 hr by broth dilution assay; format: functional; details: NCIM 3252, 72 h
[30] = test system: Aspergillus niger; experiment: Antifungal activity against Aspergillus niger NCIM 1196 after 72 hr by broth dilution assay; format: functional; details: NCIM 1196, 72 h
[31] = test system: Penicillium chrysogenum; experiment: Antifungal activity against Penicillium chrysogenum NCIM 707 after 72 hr by broth dilution assay; format: functional; details: NCIM 707, 72 h
[32] = test system: Bacillus cereus; experiment: Antibacterial activity against Bacillus cereus NCIM 2155 after 24 hr by broth dilution assay; format: functional; details: NCIM 2155, 24 h
[33] = test system: Streptomyces albus; experiment: Antibacterial activity against Streptomyces albus NCIM 2178 after 24 hr by broth dilution assay; format: functional; details: NCIM 2178, 24 h
[34] = test system: Candida albicans; experiment: Antifungal activity against Candida albicans NCIM 3471 after 72 hr by broth dilution assay; format: functional; details: NCIM 3471, 72 h
[35] = test system: Rhodotorula mucilaginosa; experiment: Antifungal activity against Rhodotorula mucilaginosa NCIM 3174 after 72 hr by broth dilution assay; format: functional; details: NCIM 3174, 72 h

Row | SMILES | zone of inhibition at 1000 µg/disc [1] | zone of inhibition at 500 µg/disc [2] | diameter of the inhibition zone (DIZ) [4] | zone of inhibition at 1000 µg/disc [5] | diameter of the inhibition zone (DIZ) [6] | diameter of the inhibition zone (DIZ) [8] | zone of inhibition at 1000 µg/disc [9] | zone of inhibition at 1000 µg/disc [11] | diameter of the inhibition zone (DIZ) [14] | zone of inhibition at 1000 µg/disc [15] | zone of inhibition at 1000 µg/disc [17] | zone of inhibition at 1000 µg/disc [19] | diameter of the inhibition zone (DIZ) [20] | zone of inhibition at 1000 µg/disc [21] | zone of inhibition at 1000 µg/disc [23] | MIC [25] | MIC [26] | MIC [27] | MIC [28] | MIC [32] | also measured
1 | COc1ccc2nc3[nH]c(=S)[nH]c(=O)c3cc2c1 | 12 mm | 11 mm | inactive | 8 mm | inactive | inactive | 13 mm | 12 mm | inactive | 10 mm | 11 mm | 13 mm | inactive | 15 mm | 13 mm | 62.5 µg/mL (≈ 241 µM) | 15.6 µg/mL (≈ 60.2 µM) | 3.9 µg/mL (≈ 15 µM) | 31.2 µg/mL (≈ 120 µM) | 125 µg/mL (≈ 482 µM) | diameter of the inhibition zone (DIZ) [3]: inactive; diameter of the inhibition zone (DIZ) [7]: inactive; zone of inhibition at 500 µg/disc [10]: 11 mm; diameter of the inhibition zone (DIZ) [12]: inactive; diameter of the inhibition zone (DIZ) [13]: inactive; diameter of the inhibition zone (DIZ) [16]: inactive; diameter of the inhibition zone (DIZ) [18]: inactive; zone of inhibition at 500 µg/disc ([22]; NCIM 2200, 24 h, read-out: DIZ): 9 mm; zone of inhibition at 500 µg/disc [24]: 9 mm; MIC [29]: 125 µg/mL (≈ 482 µM); MIC [30]: 7.8 µg/mL (≈ 30.1 µM); MIC [31]: 125 µg/mL (≈ 482 µM)
2 | Cc1cccc2cc3c(=O)[nH]c(=S)[nH]c3nc12 | 10 mm | 8 mm | inactive |  | inactive | inactive | 16 mm | 9 mm | inactive | 13 mm | 12 mm | 10 mm | inactive | 12 mm | 11 mm | 31.2 µg/mL (≈ 128 µM) | 15.6 µg/mL (≈ 64.1 µM) | 6.5 µg/mL (≈ 26.7 µM) | 31.2 µg/mL (≈ 128 µM) | 31.2 µg/mL (≈ 128 µM) | diameter of the inhibition zone (DIZ) [3]: inactive; diameter of the inhibition zone (DIZ) [5]: inactive; zone of inhibition at 1000 µg/disc [7]: 10 mm; zone of inhibition at 500 µg/disc [10]: 12 mm; diameter of the inhibition zone (DIZ) [12]: inactive; zone of inhibition at 1000 µg/disc [13]: 12 mm; diameter of the inhibition zone (DIZ) [16]: inactive; zone of inhibition at 500 µg/disc [18]: 9 mm; diameter of the inhibition zone (DIZ) [22]: inactive; zone of inhibition at 500 µg/disc [24]: 8 mm; MIC [29]: 125 µg/mL (≈ 514 µM); MIC [30]: 3.9 µg/mL (≈ 16 µM); MIC [33]: 125 µg/mL (≈ 514 µM)
3 | O=c1[nH]c(=O)c2cc3cc(Cl)ccc3nc2[nH]1 |  |  | inactive | 9 mm | inactive | inactive |  |  | inactive | 10 mm | 12 mm | 8 mm | inactive | 12 mm | 12 mm | 31.2 µg/mL (≈ 126 µM) | 62.5 µg/mL (≈ 252 µM) | 31.2 µg/mL (≈ 126 µM) | 7.8 µg/mL (≈ 31.5 µM) | 31.2 µg/mL (≈ 126 µM) | diameter of the inhibition zone (DIZ) [1]: inactive; diameter of the inhibition zone (DIZ) [2]: inactive; zone of inhibition at 1000 µg/disc [3]: 10 mm; diameter of the inhibition zone (DIZ) [7]: inactive; diameter of the inhibition zone (DIZ) [9]: inactive; diameter of the inhibition zone (DIZ) [10]: inactive; diameter of the inhibition zone (DIZ) [11]: inactive; diameter of the inhibition zone (DIZ) [12]: inactive; zone of inhibition at 1000 µg/disc [13]: 10 mm; zone of inhibition at 500 µg/disc [16]: 8 mm; zone of inhibition at 500 µg/disc [18]: 8 mm; diameter of the inhibition zone (DIZ) [22]: inactive; zone of inhibition at 500 µg/disc [24]: 9 mm; MIC [33]: 62.5 µg/mL (≈ 252 µM)
4 | O=c1[nH]c(=S)[nH]c2nc3ccc(Br)cc3cc12 | 12 mm | 8 mm | inactive | 12 mm |  | inactive | 10 mm | 12 mm | inactive | 15 mm | 14 mm | 8 mm | inactive | 12 mm | 10 mm | 7.8 µg/mL (≈ 25.3 µM) | 125 µg/mL (≈ 406 µM) | 125 µg/mL (≈ 406 µM) | 125 µg/mL (≈ 406 µM) | 15.6 µg/mL (≈ 50.6 µM) | zone of inhibition at 1000 µg/disc [3]: 12 mm; zone of inhibition at 500 µg/disc ([6]; NCIM 3174, 72 h, read-out: DIZ): 7 mm; zone of inhibition at 1000 µg/disc [7]: 9 mm; diameter of the inhibition zone (DIZ) [10]: inactive; zone of inhibition at 500 µg/disc ([12]; NCIM 707, 72 h, read-out: DIZ): 8 mm; zone of inhibition at 1000 µg/disc [13]: 12 mm; zone of inhibition at 500 µg/disc [16]: 10 mm; zone of inhibition at 500 µg/disc [18]: 12 mm; diameter of the inhibition zone (DIZ) [22]: inactive; diameter of the inhibition zone (DIZ) [24]: inactive; MIC [29]: 62.5 µg/mL (≈ 203 µM); MIC [34]: 125 µg/mL (≈ 406 µM); MIC [35]: 125 µg/mL (≈ 406 µM); MIC [33]: 62.5 µg/mL (≈ 203 µM)
